pEC50, pIC50: −log10 of the molar value.
Key:
[1] = system: HCV replicon in HUH-7 cells; test: HCV replicon FRET assay; assay type: cell-based, Hepatitis C virus (strain 1b); details: Hepatitis C virus, Huh-7, 96 h
Excerpt: An HCV replicon whole cell system was established as described by Lohmann V, Korner F, Koch J, Herian U, Theilmann L, Bartenschlager R., Science 285(5424):110-3 (1999). This system enabled us to evaluate the effects of our HCV Protease compounds on HCV RNA replication. Briefly, using the HCV strain 1b sequence described in the Lohmann paper (Assession number:AJ238799), an HCV cDNA was synthesized by Operon Technologies, Inc. (Alameda, Calif.), and the full-length replicon was then assembled in plasmid pGem9zf(+) (Promega, Madison, Wis.) using standard molecular biology techniques. […]
The HCV replicon FRET assay was developed to monitor the inhibitory effects of compounds described in the disclosure on HCV viral replication. […] After 4 days, cells were first assessed for cytotoxicity using alamar Blue (Trek Diagnotstic Systems) for a CC50 reading. The toxicity of compound (CC50) was determined by adding 1/10th volume of alamar Blue to the media incubating the cells. After 4 h, the fluorescence signal from each well was read, with an excitation wavelength at 530 nm and an emission wavelength of 580 nm, using the Cytofluor Series 4000 (Perspective Biosystems). […]

[2] = system: HCV 1b replicon (Renilla luciferase reporter) in HUH-7 cells; test: HCV replicon luciferase reporter assay; assay type: cell-based, Hepatitis C virus (strain 1b); details: Huh-7, 96 h, 4 days, read-out: Potency in the 1b luciferase assay
Excerpt: As a secondary assay, EC50 determinations from the replicon FRET assay were confirmed in a replicon luciferase reporter assay. Utilization of a replicon luciferase reporter assay was first described by Krieger et al (Krieger N, Lohmann V, and Bartenschlager R, J. Virol. 75(10):4614-4624 (2001)). The replicon construct described for our FRET assay was modified by inserting cDNA encoding a humanized form of the Renilla luciferase gene and a linker sequence fused directly to the 3′-end of the luciferase gene. This insert was introduced into the replicon construct using an Asc1 restriction site located in core, directly upstream of the neomycin marker gene. The adaptive mutation at position 1179 (serine to isoleucine) was also introduced (Blight K J, Kolykhalov, A A, Rice, C M, Science 290(5498):1972-1974). A stable cell line constitutively expressing this HCV replicon construct was generated as described above. The luciferase reporter assay was set up as described for the HCV replicon FRET assay with the following modifications. Following 4 days in a 37° C./5% CO2 incubator, cells were analyzed for Renilla Luciferase activity using the Promega Dual-Glo Luciferase Assay System. Media (100 μl) was removed from each well containing cells. To the remaining 50 μl of media, 50 μl of Dual-Glo Luciferase Reagent was added, and plates rocked for […] to 2 h at room temperature. Dual-Glo Stop & Glo Reagent (50 μl) was then added to each well, and plates were rocked again for an additional 10 min to 2 h at room temperature. Plates were read on a Packard TopCount NXT using a luminescence program.
The percentage inhibition was calculated using the formula below: […]
The values were graphed and analyzed using XLfit to obtain the EC50 value.

[3] = target: T1, HCV NS3/4A protease complex (Hepatitis C virus genotype 1a, UniProt P27958, C1454S/C1711G); test: FRET peptide assay to monitor HCV NS3/4A proteolytic activity; assay type: biochemical
T1 construct: DNA encoding the recombinant HCV NS3/4A protease complex (amino acids 1027 to 1711) for these strains; inferred from pET21b vector and Ni-NTA purification; made in house; host or cells: Escherichia coli BL21 (DE3)
T1 sequence (P27958 1027-1711 C1454S/C1711G, one chain of several): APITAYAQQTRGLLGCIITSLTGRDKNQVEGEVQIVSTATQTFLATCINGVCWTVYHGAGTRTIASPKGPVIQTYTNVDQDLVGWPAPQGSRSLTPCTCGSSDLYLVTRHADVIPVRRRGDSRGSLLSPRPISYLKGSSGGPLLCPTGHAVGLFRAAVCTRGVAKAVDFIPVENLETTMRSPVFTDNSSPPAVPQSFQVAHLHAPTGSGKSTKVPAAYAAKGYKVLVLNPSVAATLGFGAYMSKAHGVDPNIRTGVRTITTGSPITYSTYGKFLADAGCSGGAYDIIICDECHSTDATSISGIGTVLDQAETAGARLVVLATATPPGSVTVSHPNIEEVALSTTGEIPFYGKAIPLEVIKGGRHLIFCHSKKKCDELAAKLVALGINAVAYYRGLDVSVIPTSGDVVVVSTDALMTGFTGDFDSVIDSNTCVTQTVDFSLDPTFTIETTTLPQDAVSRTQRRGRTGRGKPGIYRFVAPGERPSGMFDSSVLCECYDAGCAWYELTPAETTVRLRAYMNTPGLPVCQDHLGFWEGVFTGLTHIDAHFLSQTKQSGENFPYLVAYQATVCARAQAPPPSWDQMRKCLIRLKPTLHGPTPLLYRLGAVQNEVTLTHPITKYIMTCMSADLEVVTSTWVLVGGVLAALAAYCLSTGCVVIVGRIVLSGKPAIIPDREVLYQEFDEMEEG
Excerpt: HCV NS3 protease complexes, derived from the BMS strain, H77 strain or J4L6S strain, were generated, as described below. These purified recombinant proteins were generated for use in a homogeneous assay (see below) to provide an indication of how effective compounds of the present disclosure would be in inhibiting HCV NS3 proteolytic activity.
Serum from an HCV-infected patient was obtained from Dr. T. Wright, San Francisco Hospital. An engineered full-length cDNA (compliment deoxyribonucleic acid) template of the HCV genome (BMS strain) was constructed from DNA fragments obtained by reverse transcription-PCR (RT-PCR) of serum RNA (ribonucleic acid) and using primers selected on the basis of homology between other genotype 1a strains. From the determination of the entire genome sequence, a genotype 1a was assigned to the HCV isolate according to the classification of Simmonds et al. (See P Simmonds, K A Rose, S Graham, S W Chan, F McOmish, B C Dow, E A Follett, P L Yap and H Marsden, J. Clin. Microbial., 31(6), 1493-1503 (1993)). […] The infectious clones, H77 (1a genotype) and J4L6S (1b genotype) were obtained from R. Purcell (NIH) and the sequences are published in Genbank (AAB67036, see Yanagi, M., Purcell, R. H., Emerson, S. U. and Bukh, J. Proc. Natl. Acad. Sci. USA. 94(16), 8738-8743 (1997); AF054247, see Yanagi, M., St Claire, M., Shapiro, M., Emerson, S. U., Purcell, R. H. and Bukh, J., Virology 244 (1), 161-172. (1998)).
The H77 and J4L6S strains were used for production of recombinant NS3/4A protease complexes. DNA encoding the recombinant HCV NS3/4A protease complex (amino acids 1027 to 1711) for these strains was manipulated as described by P. Gallinari et al. (see Gallinari P, Paolini C, Brennan D, Nardi C, Steinkuhler C, De Francesco R. Biochemistry. 38(17):5620-32, (1999)). Briefly, a three-lysine solubilizing tail was added at the 3′-end of the NS4A coding region. The cysteine in the P1 position of the NS4A-NS4B cleavage site (amino acid 1711) was changed to a glycine to avoid the proteolytic cleavage of the lysine tag. […]

Row | SMILES | pEC50 [1] | pEC50 [2] | pIC50 [3]
1 | COc1cc2ccc3cc2cc1C=CCC(C)(C)COC(=O)N[C@H]1CCCCC/C=C\[C@@H]2C[C@@]2(C(=O)NS(=O)(=O)C2CC2)NC(=O)[C@@H]2C[C@]3(OC)CN2C1=O (mixture of isomers) [Compound 1] | 8.01 | 8.80 | 9.00
2 | COc1cc2ccc3cc2cc1CCCCCCOC(=O)N[C@H]1CCCCCCC[C@@H]2C[C@@]2(C(=O)NS(=O)(=O)C2CC2)NC(=O)[C@@H]2C[C@]3(OC)CN2C1=O [Compound 2] | – | 8.41 | 8.30
3 | COc1cc2ccc3cc2cc1CCCC(C)(C)CCOC(=O)N[C@H]1CCCCCCC[C@@H]2C[C@@]2(C(=O)NS(=O)(=O)C2CC2)NC(=O)[C@@H]2C[C@]3(OC)CN2C1=O [Compound 3] | – | 8.57 | 9.00

— US20100272674A1, “Hepatitis C Virus Inhibitors” (Bristol-Myers Squibb Company, priority 2008, published 2010)
